Like-named read-outs stand apart in the source and are kept apart here.

The target of assay [1] is T1, CETP in human plasma or serum pool (Homo sapiens, UniProt P11597).
T1 construct: from tissue; host or cells: pooled human EDTA plasma or serum from healthy volunteers
T1 sequence (P11597 18-493): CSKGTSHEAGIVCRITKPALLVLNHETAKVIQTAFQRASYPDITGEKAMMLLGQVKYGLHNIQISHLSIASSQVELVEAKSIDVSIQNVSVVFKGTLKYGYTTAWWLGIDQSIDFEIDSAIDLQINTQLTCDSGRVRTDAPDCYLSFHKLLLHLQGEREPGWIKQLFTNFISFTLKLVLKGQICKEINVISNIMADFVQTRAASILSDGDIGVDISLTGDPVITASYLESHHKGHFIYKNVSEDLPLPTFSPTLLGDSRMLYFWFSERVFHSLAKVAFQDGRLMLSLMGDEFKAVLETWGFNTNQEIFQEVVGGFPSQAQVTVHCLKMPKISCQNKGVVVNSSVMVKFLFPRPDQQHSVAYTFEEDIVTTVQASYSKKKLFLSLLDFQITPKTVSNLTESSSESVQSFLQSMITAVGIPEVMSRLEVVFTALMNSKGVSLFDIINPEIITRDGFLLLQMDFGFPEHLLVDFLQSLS
Kind of assay: Whole serum CETP activity assay (tritiated cholesterol ester). The conditions noted are these: 4 hours at 37° C. Type of assay: biochemical. The procedure: Blood was obtained from healthy volunteers recruited from the personnel of Monsanto Company, Saint Louis, Mo. Blood was either collected in tubes containing EDTA (EDTA plasma pool) or in tubes without EDTA (spun to form the serum pool). The EDTA human plasma pool or human serum pool, previously stored at −20° C., was thawed at room temperature, and centrifuged for 5 minutes to remove any particulate matter. Tritiated HDL, radiolabeled in the cholesteryl ester moiety ([^3H]CE-HDL) as described by Morton and Zilversmit (J. Biol. Chem., 256, 11992-95 (1981) which is incorporated by reference herein), was added to the plasma or serum to a final concentration of (25 μg/ml cholesterol).
Inhibitor compounds were added to the plasma or serum as follows: Equal volumes of the plasma or serum containing the [^3H]CE-HDL (396 μl) were pipetted into micro tubes (Titertube®, Bio-Rad Laboratories, Hercules, Calif.). Compounds, usually dissolved as 20-50 mM stock solutions in DMSO, were serially diluted in DMSO (or an alternative solvent in some cases, such as dimethylformamide or ethanol). Four μl of each of the serial dilutions of inhibitor compounds or DMSO alone were then added to each of the plasma or serum tubes. The tubes were immediately mixed. Triplicate aliquots (100 μl) from each plasma or serum tube were then transferred to wells of 96-well round-bottomed polystyrene microtiter plates (Corning, Corning, N.Y.). Plates were sealed with plastic film and incubated at 37° C. for 4 hours.
Test wells contained plasma or serum with dilutions of inhibitor compounds. Control wells contained plasma or serum with DMSO alone. Blank wells contained plasma or serum with DMSO alone that were left in the micro tubes at 4° C. for the 4 hour incubation and were added to the microtiter wells at the end of the incubation period. VLDL and LDL were precipitated by the addition of 10 μl of precipitating reagent (1% (w/v) Dextran Sulfate (Dextralip50)/0.5M magnesium chloride, pH 7.4) to all wells. The wells were mixed on a plate mixer and then incubated at ambient temperature for 10 min. The plates were then centrifuged at 1000×g for 30 mins at 10° C. The supernatants (50 μl) from each well were then transferred to Picoplate™ 96 plate wells (Packard, Meriden, Conn.) containing […] Microscint™-40 (Packard, Meriden, Conn.). The plates were heat-sealed (TopSeal™-P, Packard, Meriden, Conn.) according to the manufacturers directions and mixed for 30 min.
Radioactivity was measured on a microplate scintillation counter (TopCount, Packard, Meriden, Conn.). […] The maximum percent transfer (in the control wells) was determined using the following equation: [formula]
The percent of control transfer determined in the wells containing inhibitor compounds was determined as follows: [formula]
IC50 values were then calculated from plots of % control versus concentration of inhibitor compound.

The subject of assay [2] is CETP. Kind of assay: Inhibition of CETP activity in vivo: [3H]CE transfer from HDL to VLDL and LDL after intravenous injection. The arrangement: species or system golden Syrian hamster. Particulars: hamsters, injection into jugular vein, four hours. From the text: Inhibition of CETP by a test compound can be determined by administering the compound to an animal by intravenous injection, determining the rate of transfer of tritium-labeled cholesteryl ester (^3H]CE) from HDL to VLDL and LDL particles, and comparing the rate of transfer with the rate of transfer observed in control animals.
Male golden Syrian hamsters were maintained on a diet of chow containing 0.24% cholesterol for at least two weeks prior to the study. Immediately before the experiment, animals were anesthetized with pentobarbital. Anesthesia was maintained throughout the experiment. Indwelling catheters were inserted into the jugular vein and carotid artery. Test compound, Dimethyl 5,5′-dithiobis[2-difluoromethyl)-4-(2-methylpropyl)-6-(trifluoromethyl)-3-pyridinecarboxylate] (Compound 181), was dissolved as a 80 mM stock solution in vehicle (2% ethanol: 98% PEG 400, Sigma Chemical Company, St. Louis, Mo., USA). At the start of the experiment all animals received 0.2 ml of a solution containing [^3H]-CE-HDL into the jugular vein. [^3H[-CE-HDL is a preparation of human HDL containing tritium-labeled cholesteryl ester, and was prepared according to the method of Glenn et al. (“Quantification of Cholesteryl Ester Transfer Protein (CETP): A) CETP Activity and B) Immunochemical Assay of CETP Protein,” Meth. Enzymol., Glenn and Melton (Meth. Enzymol., 263, 339-351 (1996) which is incorporated herein by reference).
After 2 minutes, the animals received 0.1 ml of the test solution injected into the jugular vein. Control animals received 0.1 ml of the vehicle solution without test compound. After 5 minutes, the first blood samples (0.5 ml) were taken from the carotid artery and collected in standard microtainer tubes containing ethylenediamine tetraacetic acid. Saline (0.5 ml) was injected to flush the catheter and replace blood volume. Subsequent blood samples were taken at two hours and four hours by the same method. Blood samples were mixed well and kept on ice until the completion of the experiment.
Plasma was obtained by centrifugation of the blood samples at 4° C. The plasma (50 μl) was then treated with 5 μl of precipitating reagent (dextran sulfate, 10 g/l; 0.5M magnesium chloride to remove VLDL/LDL. After centrifugation, the resulting supernatant (25 μl) containing the HDL was analyzed for radioactivity using a liquid scintillation counter. The percentage [^3H] CE transferred from HDL to LDL and VLDL (% transfer) was calculated based on the total radioactivity in equivalent serum samples before precipitation. Typically, the amount of transfer from HDL to LDL and VLDL in control animals was 30 to 35% after four hours. The polyethylene glycol vehicle was determined to have no effect on CETP activity in this model.
(Compound 181), and five animals that received vehicle. At two hours, mean values of 13% [^3H]-Ce transfer from HDL to LDL and VLDL were obtained for the control animals, but only 4.7% transfer for the animals receiving Compound 181. […] Student t-tests were performed to determine if the means for control and animals treated with Compound 181 were statistically different.

Assay [3] has as its target T2, CETP (Homo sapiens, UniProt P11597).
T2 construct: made in house; host or cells: CHO cells (serum-free conditioned medium)
T2 sequence (P11597 18-493): T1 sequence (P11597 18-493)
Kind of assay: CETP activity in vitro: transfer of [3H]CE from HDL donor to LDL acceptor particles. The assay is classed as biochemical. In outline:
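Transfer of radiolabelled cholesteryl ester from HDL to LDL was followed over 2 h at 37 °C in Tris buffer (pH 7.4, 150 mM NaCl, 2 mM EDTA, 1% BSA), using CETP secreted by transfected CHO cells. Radioactivity in dextran sulfate/Mg-precipitated LDL was measured by scintillation counting, giving IC50.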

In the case of `COC(=O)c1c(C(F)F)nc(C(F)(F)F)c(S)c1CC(C)C` [Compound 7, Methyl 2-(Difluoromethyl)-5-mercapto-4-(2-methylpropyl)-6-(trifluoromethyl)-3-pyridinecarboxylate], the “IC50 whole serum CETP activity” value in assay [1] was found to be 17 µM. Besides, the “% Transfer of [3H]-CE from HDL to LDL and VLDL” value with CETP [2] was found to be 10.6%. Moreover, the “% Inhibition of CETP activity” value with CETP [2] (versus control animals) is reported as 50%. Also, the IC50 at CETP [3] (50% inhibition of [3H]CE transfer from HDL to LDL, 2 hours at 37° C., read-out: IC50(μm)) was found to be 8.75 µM.

Take `COC(=O)c1c(C(F)F)nc(C(F)(F)F)c(CSc2ccc3ccccc3c2)c1CC(C)C` [Compound 215, Methyl 5-[(2-Naphthyl)thiomethyl]-2-(difluoromethyl)-4-(2-methylpropyl)-6-(trifluoromethyl)-3-pyridinecarboxylate]: the “IC50 whole serum CETP activity” value in assay [1] was 110 µM. Also, the concentration for half-maximal inhibition (IC50) on CETP [3] (Table 6, compounds of formula T-6, read-out: IC50) is 2 µM.

As usually defined, the IC50 is the point on the concentration scale where inhibition reaches its midpoint.
